Reference: patent US20110142799A1, “MODULATION OF NEURODEGENERATIVE DISEASE BY MODULATING XBP-1 ACTIVITY” (PRESIDENT AND FELLOWS OF HARVARD COLLEGE, priority 2008, published 2011)

Tests used:
[1] = tested on: autophagosomes in NSC34 cells; test: Autophagosome number (LC3-EGFP dots, electron microscopy) in NSC34 cells; format: cell-based; settings: shXBP-1 cells, 16 h with 10 mM 3-MA
Method: Lysosomes or acidic compartments were visualized with two different assays. Living cells were stained with 200 nM lysotraker or 600 nM Acridine orange for 45 min at 37 C and 5% CO2. Cells were washed three times with cold PBS and then fixed for 30 min with 4% formaldehyde on ice, then maintained in PBS containing 0.4% formaldehyde for visualization on a confocal microscope. Autophagosomes were visualized after the expression of LC3-EGFP (Kabeya et al., 2000. EMBO J. 19, 5720-5728) or LC3-dsRED after the transient transfection of low amount of DNA (⅓ amount of recommended concentrations by transfection kit). As control experiments, cells were treated with 10 mM 3-MA autophagy inhibitor. All quantifications were performed at least in a total of 150 cells performed in duplicate for each independent experiment.
Autophagosomes were also visualized by transmission electron microscopy. Cells were fixed with 1.25% formaldehyde, 2.5% glutaraldehyde, 0.03% picric acid in 100 mM sodium cacodylate buffer. After washing with 100 mM sodium cacodylate buffer, tissues were treated for 1 h with 1% osmium tetroxide and 1.5% potassium ferrocyanide, and then 30 min with 0.5% uranyl acetate in 50 mM maleate buffer, pH 5.15. After dehydration in ethanol, cells were treated for 1 h in propylenoxide and then embedded in Epon/Araldite resin. […]

[2] = tested on: mutant SOD1 aggregates in NSC34 cells; test: High molecular weight, detergent insoluble SOD1 aggregates in NSC34 cells by Western blot; format: cell-based, human; settings: shXBP-1 and shIRE-1 alpha NSC34 cells expressing SOD1^G85R; 16 h with 10 mM 3-MA or 10 μM wortmannin
From the text: Stable motoneuron cell lines with reduced levels of XBP-1, IRE1α, Beclin-1 and EDEM were generated using methods previously described (Hetz et al., 2007) by targeting the respective mRNA with shRNA using the lentiviral expression vector pLKO.1 and puromycin selection. As control empty vector or a shRNA against the luciferase gene were employed. Constructs were generated by The Broad Institute (Boston, USA) based on different criteria for shRNA design (see broad.mit.edu/genome_bio/trc/rnai.html). A total of five different constructs for each gene were screened and the most efficient one was selected for further studies. Targeting sequences identified for the mouse XBP-1, IRE1α, Beclin-1 and EDEM mRNA are 5′-[…]-3′,5′-[…]-3′,5′-[…]-3′,5′-[…]-3′,5′-[…]-3′,5′-[…]-3′, 5′-[…]-3′ and 5′-[…]-3′, respectively. […]
Assays using the transient expression of human SOD1^WT and the mutants SOD1^G93A and SOD1^G85R as EGFP fusion proteins were developed. These constructs were employed to visualize and quantify the formation of intracellular SOD1 inclusions in living cells by fluorescent confocal microscopy. […] SOD1 oligomers were visualized in total cell extracts prepared in RIPA buffer and sonication, and then analyzed by Western blot. […]

Cn1cnc(N)c2ncnc1-2 [3-MA, 3-methyladenine]
number of cells containing more than four autophagosomes per cell after 3-MA [1]: decreased
SOD1 aggregation after PI3-kinase / autophagy inhibitor [2]: recovery of mutant SOD1 aggregation in knockdown cells
